Values quoted from earlier work in US20080280973A1, “Laulimalide Analogues as Therapeutic Agents” (priority 2004, published 2008).

Legend:
[1] = tested on: KB, P388, A549, HT29 and MEL28 cell lines
[2] = tested on: multi-drug resistant cell line SKVLB-1
[3] = tested on: HeLa cells, NCI/ADR cells, MDA-MB-435 cell line; settings: relative to laulimalide; cell line not specified

Compound	anti-tumor potency range [1]	IC50 [2] [nM]	fold less potent than laulimalide [3]
C=C1C[C@H](C)C[C@@H]2CC=C[C@@H](C/C=C\C(=O)O[C@H]([C@@H](O)/C=C/[C@@H]3CC(C)=CCO3)C[C@@H]3O[C@H]3[C@@H](O)C1)O2 [Laulimalide, laulimalide]	nanomolar range	1200	
C16-C17-des-epoxy laulimalide [des-epoxy analogue]			approximately 19 fold
